Consider 2 molecules from patent publication US11530385B2, “Hormone responsive tissue culture system and uses thereof” (Whitehead Institute for Biomedical Research, priority 2007, dated 2022).

The test system of assay [1] is BPE cells. Description: in vitro growth inhibition by estrogen antagonist, BPE cells. It is filed as cell-based, human. The note with it: data not shown. The text has this: (§1) Expression of CK18 and BER-Ep4 both confirm the adenocarcinoma features and exclude a squamous tumor. E-cadherin excludes a mesenchymal tumor. BPLER xenografts express progesterone receptor, which is consistent with the notion that BPLER xenografts are hormone-responsive. This was confirmed by experiments in which estrogen-progesterone treatment of mice increased subject tumor size approximately two-fold compared to untreated mice. […] Similar tumor xenografts from cells cultured in the MEGM media was negative for progesterone receptor expression and the in vitro growth inhibition of the cells with ICI 182,780 was less than 20% (data not shown).

For assay [2], the system named is BPEC cells. Description: in vitro growth inhibition by estrogen antagonist, BPEC cells. It is filed as cell-based, human. As to conditions: data not shown.
Excerpt: as §1

Assay [3] deals with cells cultured in the MEGM media. Description: in vitro growth inhibition by estrogen antagonist, cells cultured in the MEGM media. It is filed as cell-based, human. As to conditions: data not shown.
Excerpt: as §1

Assay [4] has as its system BPLE cells. Description: in vitro growth inhibition by estrogen antagonist, BPLE cells. It is filed as cell-based, human. The note with it: data not shown.
Excerpt: as §1

Assay [5] deals with BPLER xenograft tumors. Description: hormone responsiveness of BPLER xenograft tumors in mice. The note with it: estrogen treated animals. It is filed as in vivo. From the text:
In one respect, the histology of tumors arising from BPLER is very similar, if not identical to human ductal breast carcinoma. There is prominent luminal marker CK18 expression in BPLER cells and tumors. There is also prominent expression of E-cadherin, a marker indicating polarization of cells. Morphology wise, BPLER xenografts form glandular structures similar to those seen in human tumors. BPLER xenografts into mammary fat pads are invasive into adjacent skeletal muscle, and cause a desmoplastic reaction. BPLER xenografts also express progesterone receptors based on immunohistological staining of xenograft tumor samples. In addition, BPLER tumor sizes respond to estrogen treatment, in that xenograft tumors weighed about 70-100% more in estrogen treated animals than in control animals. BPLER tumors spread within the breast tissue of mice, and the multifocal growth is consistent with lymphovascular invasion and spread of tumors. […]
Analysis of tumorigenicity and metastasis: Single-cell suspensions were prepared in a WIT:Matrigel (1:1) mixture and injected in 25 μL (orthotopic) and 100 μl (subcutaneous) volumes. […] Metastasis to lungs and other tissues was analyzed initially under a dissecting microscope (Leica) in fresh tissues, followed by microscopic examination of hematoxylin-eosin and immunostained sections of formalin-fixed and paraffin-embedded tissues. […]

For `C[C@]12CC[C@@H]3c4ccc(O)cc4C[C@@H](CCCCCCCCC[S+]([O-])CCCC(F)(F)C(F)(F)F)[C@H]3[C@@H]1CC[C@@H]2O` (some centres unmarked) [ICI 182,780], the growth inhibition in assay [1], in assay [2] and in assay [4] was over 80% in each case. Besides, in assay [3], the “in vitro growth inhibition” value was “less than 20%”.
Consider estrogen, for which the “xenograft tumor weight increase in treated animals vs control animals” value in assay [5] is 70-100%.
